Laboratory results from PubChem BioAssay (NCI).
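96-well plates; 48 h exposure; 5 concentrations. Endpoints by linear interpolation between flanking doses. Not reached: highest tested concentration assigned. Definition used: TGI = concentration required for complete inhibition of growth.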

How the values were obtained:
Assay in all cases: NCI anticancer screen, dose series, 48 h
LOX IMVI melanoma = test system: LOX IMVI melanoma
SK-OV-3 ovarian = test system: SK-OV-3 ovarian
CAKI-1 renal = test system: CAKI-1 renal
HOP-62 NSCLC = test system: HOP-62 NSCLC
SNB-19 CNS = test system: SNB-19 CNS
MOLT-4 leukemia = test system: MOLT-4 leukemia
U251 CNS = test system: U251 CNS
ACHN renal = test system: ACHN renal
HCT-15 colon = test system: HCT-15 colon
K-562 leukemia = test system: K-562 leukemia
HT29 colon = test system: HT29 colon
XF 498 CNS = test system: XF 498 CNS
KM12 colon = test system: KM12 colon
SN12C renal = test system: SN12C renal
MALME-3M melanoma = test system: MALME-3M melanoma
M19-MEL melanoma = test system: M19-MEL melanoma
LXFL 529 NSCLC = test system: LXFL 529 NSCLC
NCI-H522 lung = test system: NCI-H522 lung
A549 NSCLC = test system: A549 NSCLC
SNB-75 CNS = test system: SNB-75 CNS

Measured: TGI

CCOC(=O)NC(=O)c1cn(CCNCCO)c(=O)[nH]c1=O
> 100 µM: all assays above
